In brackets after ≈: the same amount, converted by molar mass. Counter-ions that a name gives are not always drawn. Like-named read-outs stand apart in the source and are kept apart here. Bridge positions count the residues as written; N and C are the ends. Square brackets hold non-standard residues; d marks the D form. Peptide text beside a SMILES is read from it. * marks the point of attachment. X1 = CC[C@H](C)CCCCC(=O)*; Dab = NCC[C@H](N)C(=O)O
Experiments:
[1] = assay type: in vivo, human
[2] = tested on: multidrug resistant Klebsiella pneumoniae; test: microbe, parasite or virus in culture
[3] = tested on: multidrug resistant Klebsiella pneumoniae; assay type: in vivo, human; conditions: 1.5 mg/kg/dose every 12 hours IV in combination with amikacin once daily; persistently febrile; infant, n = 1
[4] = tested on: multidrug resistant Klebsiella pneumoniae; conditions: blood culture isolate of the patient; for MIC: method not stated
Acinetobacter baumannii = test: MIC of the endotracheal aspirate isolate; assay type: cell-based; conditions: isolate from endotracheal aspirate of the patient; reported as susceptible

In the case of `CC[C@H](C)CCCCC(=O)N[C@@H](CCN)C(=O)N[C@H](C(=O)N[C@@H](CCN)C(=O)N[C@H]1CCNC(=O)[C@H]([C@@H](C)O)NC(=O)[C@H](CCN)NC(=O)[C@H](CCN)NC(=O)[C@H]([C@@H](C)CC)NC(=O)[C@@H](Cc2ccccc2)NC(=O)[C@H](CCN)NC1=O)[C@@H](C)O` [Isoleucine Polymyxin B1] (X1-[Dab]T[Dab][Dab][Dab][dF]I[Dab][Dab]T; lactam 4-C), the clearance ([1]; human, in vivo, iv) is reported as 4.02 mL/min.

With `CC[C@H](C)CCCCC(=O)N[C@@H](CCN)C(=O)N[C@H](C(=O)N[C@@H](CCN)C(=O)N[C@H]1CCNC(=O)[C@H]([C@@H](C)O)NC(=O)[C@H](CCN)NC(=O)[C@H](CCN)NC(=O)[C@H](CC(C)C)NC(=O)[C@@H](Cc2ccccc2)NC(=O)[C@H](CCN)NC1=O)[C@@H](C)O` [Polymyxin B1] (X1-[Dab]T[Dab][Dab][Dab][dF]L[Dab][Dab]T; lactam 4-C) the clearance ([1]; human, in vivo, iv) was 5.07 mL/min, the half-life ([1]; human, in vivo, iv) was 3.07 h and the “elimination half-life (rounded)” value ([1]; infant, n = 1, IV polymyxin B, steady-state serum, LC-MS) was 3.1 h.

With `NCC[C@H](O)C(=O)N[C@@H]1C[C@H](N)[C@@H](O[C@H]2O[C@H](CN)[C@@H](O)[C@H](O)[C@H]2O)[C@H](O)[C@H]1O[C@H]1O[C@H](CO)[C@@H](O)[C@H](N)[C@H]1O` [amikacin] the MIC [2] was < 2 µg/mL.

For `C[C@H]1[C@H](NC(=O)/C(=N\OC(C)(C)C(=O)O)c2csc(N)n2)C(=O)N1S(=O)(=O)O` [aztreonam], the MIC [2] was > 64 µg/mL.

Compound `CC(C)(O/N=C(\C(=O)N[C@@H]1C(=O)N2C(C(=O)[O-])=C(C[n+]3ccccc3)CS[C@H]12)c1csc(N)n1)C(=O)O` [ceftazidime] has an MIC [2] of 16 µg/mL (≈ 29.3 µM).

For `CO/N=C(\C(=O)N[C@@H]1C(=O)N2C(C(=O)O)=C(CSc3nc(=O)c(=O)[nH]n3C)CS[C@H]12)c1csc(N)n1` [ceftriaxone], the MIC [2] was 16 µg/mL (≈ 28.9 µM).

With `C[C@@H](O)[C@H]1C(=O)N2C(C(=O)O)=C(S[C@@H]3CN[C@H](C(=O)N(C)C)C3)[C@H](C)[C@H]12` [meropenem] the MIC ([2]; read-out: MIC by E-test) was 32 µg/mL (≈ 83.4 µM).

In the case of `CC[C@H](C)CCCCC(=O)N[C@@H](CCN)C(=O)N[C@H](C(=O)N[C@@H](CCN)C(=O)N[C@H]1CCNC(=O)[C@H]([C@@H](C)O)NC(=O)[C@H](CCN)NC(=O)[C@H](CCN)NC(=O)[C@H](CC(C)C)NC(=O)[C@@H](Cc2ccccc2)NC(=O)[C@H](CCN)NC1=O)[C@@H](C)O` [polymyxin B, Polymyxin B sulfate] (X1-[Dab]T[Dab][Dab][Dab][dF]L[Dab][Dab]T; lactam 4-C (inferred); N-terminus assumed), the “days of persistently positive blood cultures under treatment” value [3] is reported as 3 days and the “MIC by E-test” value ([4]; E-test) is reported as 1.5 µg/mL.

With ampicillin/sulbactam the MIC [4] was > 32 µg/mL.

For piperacillin/tazobactam, the MIC (Acinetobacter baumannii) was < 4 µg/mL and the MIC [4] was > 128 µg/mL.

Reference: PMC10278368 (The Pediatric infectious disease journal, 2011)
